Data from US20250351832A1, “PHYTOCHEMICALS AS BIOPESTICIDES AND BIOSTIMULANTS” (KAY BEE BIO ORGANICS PVT. LTD., priority 2024, published 2025).
Read-outs that look alike come from different tables or passages of the source.

Experiments:
Alternaria alternata [1] = assay: In vitro poisoned food technique against fungus (Ex. 20); format: cell-based; details: poisoned food technique, PDA medium, dose 1 ml/gm/lit., after seven days
Alternaria alternata [2] = assay: Alternaria leaf spot/blight on inoculated tomato plants (Ex. 28); format: in vivo; details: tomato plants, Alternaria alternata; after 7 days; dose 1 ml/gm/lit
tomato seedlings = assay: Response of tomato plants, greenhouse growth (Ex. 30); format: in vivo; details: tomato seedlings, dose 1 ml/gm/lit
chili seedlings = assay: Response of chili plants, greenhouse growth (Ex. 31); format: in vivo; details: chili seedlings, dose 1 ml/gm/lit
Aphid [3] = details: Dose 1 ml/gm/lit.
Mite [4] = details: Dose 1 ml/gm/lit.
Mealy Bug [5] = details: Mealy Bug on cotton leaves, dose 1 ml/gm/lit., 48 Hrs.
Helicoverpa armigera [6] = details: Helicoverpa armigera on okra fruits, dose 1 ml/gm/lit., 72 Hrs.
Spodoptera litura [7] = details: Spodoptera litura on castor leaves; dose 1 ml/gm/lit.; 10 insects/treatment; 72 hrs after application
Thrips [8] = details: Thrips on cotton leaves; dose 1 ml/gm/lit.; 10 insects/treatment; 48 hrs after application
Aphid [9] = details: Aphids on cotton plants, green house; dose 1 ml/gm/lit.; 10 insects/plant, 10 plants/treatment; 48 hrs
Mite [10] = details: mite on okra plants, green house, dose 1 ml/gm/lit. spray
Mealy Bug [11] = details: mealy bug on cotton plants, green house, dose 1 ml/gm/lit. spray
Helicoverpa armigera [12] = details: Helicoverpa armigera 3rd instar on chickpea plants, dose 1 ml/gm/lit. spray
Spodoptera litura [13] = details: Spodoptera litura 3rd instar on cabbage plants, dose 1 ml/gm/lit. spray
Thrips [14] = details: thrips on cotton plants, greenhouse, dose 1 ml/gm/lit. spray
[15] = cited from earlier work
Spodoptera litura [16] = assay: whole plant or invertebrate; details: 72 h
Thrips [17] = assay: whole plant or invertebrate; details: in Gossypium hirsutum, 48 h
Aphid [18] = assay: whole plant or invertebrate; details: 48 h
Tomato thrips = assay: In vitro bio-efficacy, Tomato thrips (Ex. 57); details: Dose 0.8 ml/lit
[19] = 10 insects/treatment, 4 replications
[20] = 48 hrs, corrected for water control
[21] = 72 hrs, corrected for water control
[22] = Table 13, descriptive, no test described
[23] = read-out: % Corrected Mortality at 48 Hrs.
[24] = read-out: % Mortality at 48 Hrs.

CC12CCC(CC1=O)C2(C)C (stereo not shown) [Camphor]
Mean colony Diameter (mm) (Alternaria alternata [1]): 60.00 mm | inhibition of growth at 1 mL or g/L (Alternaria alternata [1]; vs untreated control, read-out: % Inhibition of growth): 31.8% | % Disease reduction over Control (Alternaria alternata [2]): 46.28% | Plant Height 5th Day (tomato seedlings; 5th day after application): 6.34 cm | Stem Girth 5th Day (tomato seedlings; 5th day after application): 1.90 mm | Plant Height 10th Day (tomato seedlings; 10th day after application): 6.96 cm | Stem Girth 10th Day (tomato seedlings; 10th day after application): 2.06 mm | Plant Height % Increase over pre on 10th Day (tomato seedlings; 10th day): 27.94% | Stem Girth % Increase over pre on 10th Day (tomato seedlings; 10th day): 53.50% | CCI 5th Day (tomato seedlings; 5th day after application): 13.64 | CCI % Increase over pre on 10th Day (tomato seedlings; 10th day): 26.67% | Root Length (cm) 10th Day (tomato seedlings; 10th day): 3.58 cm | CCI 10th Day (tomato seedlings; 10th day after application): 14.82 | Root Length % Increase over control (tomato seedlings; 10th day, vs water control): 7.76% | CCI 5th Day (chili seedlings; 5th day after application): 11.80 | Plant Height (cm) 5th Day (chili seedlings; 5th day after application): 5.70 cm | CCI % Increase over pre on 10th Day (chili seedlings; 10th day): 25.81% | Plant Height % Increase over pre on 10th Day (chili seedlings; 10th day): 56.20% | Root Lenght (cm) 10th Day (chili seedlings; 10th day): 3.47 cm | Stem Girth % Increase over pre on 10th Day (chili seedlings; 10th day): 44.32% | CCI 10th Day (chili seedlings; 10th day after application): 13.21 | Plant Height (cm) 10th Day (chili seedlings; 10th day after application): 6.30 cm | Root Lenght % Increase over control (chili seedlings; 10th day, vs water control): 26.68% | Total No. of dead insect at 48 Hrs. (Aphid [3]; 10 insects/treatment, 4 replications, cotton leaves): 5.75 | % Corrected Mortality at 48 Hrs. (Aphid [3]; 48 hrs): 51.43% | % Mortality at 48 Hrs. (Aphid [3]; 48 hrs): 57.50% | Total No. of dead insect at 48 Hrs. (Mite [4]; 10 insects/treatment, 4 replications, okra leaves): 6.75 | % Corrected Mortality at 48 Hrs. (Mite [4]; 48 hrs): 64.86% | Total No. of dead insect at 48 Hrs. (Mealy Bug [5]; [19]): 5.25 | % Mortality at 48 Hrs. (Mealy Bug [5]): 52.50% | % Corrected Mortality at 48 Hrs. (Mealy Bug [5]; corrected for water control): 50.00% | Total No. of dead insect at 72 Hrs. (Helicoverpa armigera [6]; [19]): 6.00 | % Mortality at 72 Hrs. (Helicoverpa armigera [6]): 60.00% | % Corrected Mortality at 72 Hrs. (Helicoverpa armigera [6]; corrected for water control): 60.00% | Total No. of dead insect at 72 Hrs. (Spodoptera litura [7]): 4.25 | Total No. of dead insect at 48 Hrs. (Thrips [8]): 4.50 | Total No. of dead insect at 48 Hrs. (Aphid [9]): 60.00 | % Mortality at 48 Hrs. (Mite [10]; 48 hrs after application): 65.00% | Total No. of dead insect at 48 Hrs. (Mite [10]; 48 hrs after application): 65.00 | % Corrected Mortality at 48 Hrs. (Mite [10]; [20]): 63.16% | % Mortality at 48 Hrs. (Mealy Bug [11]; 48 hrs after application): 67.50% | Total No. of dead insect at 48 Hrs. (Mealy Bug [11]; 48 hrs after application): 67.50 | % Corrected Mortality at 48 Hrs. (Mealy Bug [11]; [20]): 63.89% | % Mortality at 72 Hrs. (Helicoverpa armigera [12]; 72 hrs after application): 55.00% | % Corrected Mortality at 72 Hrs. (Helicoverpa armigera [12]; [21]): 55.00% | % Mortality at 72 Hrs. (Spodoptera litura [13]; 72 hrs after application): 45.00% | % Corrected Mortality at 72 Hrs. (Spodoptera litura [13]; [21]): 42.11% | % Mortality at 48 Hrs. (Thrips [14]; 48 hrs after application): 42.50% | Total No. of dead insect at 48 Hrs. (Thrips [14]; 48 hrs after application): 42.50 | % Corrected Mortality at 48 Hrs. (Thrips [14]; [20]): 36.11% | Acaricidal Activity - Mode of action [15, 22]: Deteriorating respiratory | Antifungal Activity - Mode of action [15, 22]: Repel fungal infections | Antioxidant Activity - Mode of action [15, 22]: Free radical scavenging | Bactericidal Activity - Mode of action [15, 22]: Inhibit microbial growth, | Insecticidal Activities - Mode of action [15, 22]: Strong contact toxicity | Nematicidal Activity - Mode of action [15, 22]: Strong activity against | Virucidal Activity - Mode of action [15, 22]: Control the spread of viral | Phytotonic Effect ([15]; Table 13, effect on plants, descriptive): Strong | mortality at 1 mL or g/L (Spodoptera litura [16]; read-out: % Corrected Mortality at 72 Hrs.): 39.5% | mortality at 1 mL or g/L (Spodoptera litura [16]; read-out: % Mortality at 72 Hrs.): 42.5% | mortality at 1 mL or g/L (Thrips [17]; [23]): 37.1% | mortality at 1 mL or g/L (Thrips [17]; [24]): 45% | mortality at 1 mL or g/L (Aphid [18]; [23]): 52.9% | mortality at 1 mL or g/L (Aphid [18]; [24]): 60%

CON=CNC(=O)c1ccc(C2=NOC(c3cc(Cl)cc(Cl)c3)(C(F)(F)F)C2)cc1C (stereo not shown) [Fluxametamide]
% Corrected Mortality at 72 hrs. (Tomato thrips): 57.89% | % Mortality at 72 hrs. (Tomato thrips): 60.0% | Total no of dead insects at 72 hrs. (Tomato thrips): 24.0
